Values after ≈ are worked out from the molar mass of the structure shown. Where two headings read alike, the source gives them in different places.
What was measured:
[1] = test system: Escherichia coli, Saccharomyces cerevisae, Pseudomonas putida and Rhodobacter sphaeroides; experiment: Toxicity of terpenes on unmodified organisms; details: all four organisms
[2] = cited from earlier work; for loqP: Table 3B
[3] = test system: Escherichia coli, Saccharomyces cerevisae, Pseudomonas putida and Rhodobacter sphaeroides
[4] = cited from earlier work
E. coli MG1655 wild-type [5] = experiment: Toxicity assay: growth rate of wild-type E. coli in M9 medium with the chemical in sealed baffled flasks; format: cell-based, Escherichia coli
Method: The tolerance against Isoprenol was confirmed with the established toxicity assay of growth in M9 medium with Isoprenol in baffled sealed 250 mL flasks. To investigate the mode of action of the tolerance trait, chemicals with similar properties were tested.
(§1) On the next day 25 mL of medium in 250 mL baffled flasks with Teflon® liner screw cabs were inoculated to an OD of 0.2 and incubated at 200 rpm. The terpenoid stress was added to the specified concentration. Before the cell-culture reached stationary phase, part of the culture was transferred to fresh medium in a fresh flask with the terpenoid. The mean culture growth rate was determined by comparing the initial OD and the culture OD before passaging.
(§2) Growth rates were determined by transforming the OD-values of each experiment with the natural logarithm. In the linear regime of growth a line was fit to the data and the slope was determined, which is equal to the growth rate. Growth rates were determined for each flask individually and the growth rate of each condition is given as the mean and standard deviation of three biological replicates.
A linear interpolation of the two data-points adjacent to the half-maximal growth rate (MIC50) was used to estimate the compound concentration of half-maximal growth rate. If the corresponding standard-deviations of the growth rates were available the standard error of the MIC50 was computed by error propagation.

[6] = test system: engineered E. coli strains (ΔyghB, ΔmarC, Δrob, rob H48fs); format: cell-based, Escherichia coli
From the text: We began the investigation of the mutations discovered in the final phenotype by testing the knock-out strains of the most promising gene-targets from the readily available Keio collection. The Keio collection is implemented in the BW25113 background which we subsequently used as reference for tolerance testing when using strains derived from the Keio collection. Compared to MG1655 the BW25113 strain is auxotroph for arabinose and rhamnose. Since glucose is the sole carbon source in our growth-assays this should not impact the physiology of tolerance.
Knock-out strains were constructed by amplification of resistance cassette with 25 bp overlap from corresponding Keio strains (Primers 3+4, 5+6 and 7+8). The PCR products carrying a homologous 25 bp sequence and a kanamycin resistance were used to transform E. coli MG1655 using standard procedures (Baba et al., 2006). For over-expression plasmids target genes were amplified with a 25 bp homology to the pAH030 overexpression plasmid. The Plasmid was linearized using the Spel restriction site and the PCR-product containing the gene of interested was inserted using Gibson assembly (Gibson et al., 2009).
Knock out strains were prepared using DNA-fragments isolated from the corresponding Keio collection strains. Recombination was carried out using a standard RED/ET kit (Genebridges Red/ET Kit, 2019).
as §2

[7] = test system: adapted E. coli strains (Isolate A to C, Mut T6 A); format: cell-based, Escherichia coli; details: Isobutanol 65 mM, Prenol 40 mM, Butanol 7.5 g/L, Vanillin 1 g/L; Geraniol concentration not given
Method: To investigate the mode of action of the tolerance trait, chemicals with similar properties were tested.
To assess the limitations of the tolerance mechanism, tolerance against three additional chemicals was tested.
as §1, §2

E. coli MG1655 wild-type [8] = details: cited from earlier work

Compound: CC(C)=CCCC(C)=CC=O [Citral]
- toxicity on unmodified organisms [1]: toxic effects
- loqP [2]: 2.9

Compound: CCOC(=O)CC [Ethyl Propionate]
- loqP [2]: 1.21

Compound: C=C(C)[C@H]1CC=C(C)CC1 [Limonene]
- loqP [2]: 4.571

Compound: CC1CCC(C(C)C)C(O)C1 (centres unmarked) [Menthol]
- toxicity on unmodified organisms [3]: toxic effects
- loqP [2]: 3.2

Compound: C=C(C)C1CC=C(C)C(=O)C1 (single isomer, unassigned; (-)) [(-)-Carvone]
- loqP [2]: 2.71

Compound: C=CC(C)(O)CCC=C(C)C (centres unmarked) [Linalool]
- Solubility ([4]; solubility in water, Table 3B): 1.5 g/L (≈ 9.72 mM)

Compound: COc1cc(C(=O)O)ccc1O [Vanillic Acid]
- loqP [2]: 1.43

Compound: C=C(C)CCO [Isoprenol, 3-methyl-3-buten-1-ol]
- growth of wild-type E. coli cells (E. coli MG1655 wild-type [5]; 60 to 80 mM Isoprenol concentration regime): not able to grow
- toxicity on unmodified organisms [1]: toxic effects
- loqP [2]: 0.89
- logP ([2]; Table A): 0.89
- Solubility ([4]; Table A): 90 g/L (≈ 1040 mM)
- Solubility ([4]; solubility in water, Table 3B): 90 g/L (≈ 1040 mM)
- decrease of fitness ([6]; ΔyghB strain of the Keio collection (BW25113), Isoprenol stress): about 30%

Compound: COc1cc(C=O)ccc1O [Vanillin]
- Wild-type growth rate (E. coli MG1655 wild-type [5]; 1.5 g/L Vanillin (FIG. 10B)): 0.23 h⁻¹
- EC50 (E. coli MG1655 wild-type [5]; Escherichia coli, MG1655, wild-type E. coli, own experimental set-up, read-out: experimental EC50 / half-maximal growth repression): 1000 to 1500 µg/mL
- growth rate reduced to fraction of wild-type growth rate (no complete growth inhibition) (E. coli MG1655 wild-type [5]; wild-type E. coli MG1655, concentration regime tested (FIG. 10A)): ⅓
- tolerance of adapted strains compared to wild-type [7]: significantly increased growth rate
- Solubility ([4]; solubility in water, Table 3B): 10 g/L (≈ 65.7 mM)
- effect of marC knock-out under Vanillin stress ([6]; ΔmarC, 1.5 g/L Vanillin): no significant positive effect
- increase of tolerance compared to wild-type ([6]; Δrob complemented with rob H48fs, 1.5 g/L Vanillin): 36%
- increased growth rate ([6]; Δrob rob H48fs plus marC knock-out, 1.5 g/L Vanillin): 28%
- increase of growth rate ([6]; Δrob, 1.5 g/L Vanillin): 8%
- additional faster growth ([6]; ΔyghB complemented with yghB expression, versus ΔyghB, 1.5 g/L Vanillin): 3%
- increase of growth rate ([6]; ΔyghB, 1.5 g/L Vanillin): 18%

Compound: CCCC(=O)OCC [Ethyl butanoate]
- loqP [2]: 1.77

Compound: CC(=O)CCc1ccc(O)cc1 [4-(4-Hydroxyphenyl)-2-butanone]
- loqP [2]: 1.5

Compound: CC(C)CO [Isobutanol]
- EC50 (E. coli MG1655 wild-type [5]; Escherichia coli, MG1655, wild-type strain, read-out: concentration where growth is 50% inhibited (EC50), half maximal inhibitory concentration): 65 mM
- loqP [2]: 0.8
- tolerance of adapted strains compared to wild-type [7]: All strains exhibit an increased tolerance

Compound: CC(C)=CCO [Prenol]
- EC50 (E. coli MG1655 wild-type [5]; wild-type strain, read-out: concentration where growth is 50% inhibited (EC50), half maximal inhibitory concentration): 40 mM
- loqP [2]: 0.91
- tolerance of adapted strains compared to wild-type [7]: only strain isolate A exhibited an increased tolerance

Compound: CC(C)=CCCC(C)=CCCC(C)=CCO [Farnesol]
- loqP [2]: 4.16
- Solubility ([4]; solubility in water, Table 3B): 0.05 g/L (≈ 0.225 mM)

Compound: CC(C)=CCC/C(C)=C/CO [Geraniol]
- toxicity on unmodified organisms [1]: toxic effects
- tolerance of adapted strains compared to wild-type [7]: highly elevated susceptibility
- Solubility ([4]; solubility in water, Table 3B): 0.68 g/L (≈ 4.41 mM)

Compound: Butanol
- Wild-type growth rate (E. coli MG1655 wild-type [5]; 5 g/L Butanol (FIG. 9B)): 0.25 h⁻¹
- experimental EC50 / half-maximal growth repression (E. coli MG1655 wild-type [5]; wild-type E. coli, own experimental set-up): ~5 g/L
- tolerance of adapted strains compared to wild-type [7]: increased tolerance
- literature value for half-maximal concentration (E. coli MG1655 wild-type [8]): 7.5 g/L
- increased growth rate ([6]; double knock out rob and marC with rob H48fs expression, 5 g/L Butanol): 41%
- increase of tolerance (growth rate vs wild-type) ([6]; ΔmarC, 5 g/L Butanol): 32%
- increase of tolerance (growth rate vs wild-type) ([6]; Δrob with leaky rob H48frameshift expression, 5 g/L Butanol): 34%
- increase of tolerance (growth rate vs wild-type) ([6]; Δrob, 5 g/L Butanol): about 25%
- increase of relative fitness ([6]; ΔyghB complemented with yghB plasmid, 0 μM IPTG, 5 g/L Butanol): about 11%
- effect of yghB knock-out on tolerance ([6]; ΔyghB, 5 g/L Butanol): decreases tolerance

From patent publication US20230041211A1, “DECREASING TOXICITY OF TERPENES AND INCREASING THE PRODUCTION POTENTIAL IN MICRO-ORGANISMS” (BASF SE, priority 2019, published 2023)
